Among the data in patent US8426441B2, “Inhibitors of bruton's tyrosine kinase” (Roche Palo Alto LLC, priority 2007, dated 2013) are melting point values, retold here.

The structures appear in SMILES notation.

Take `CNC(=O)Nc1cc(-c2ccccc2)cn2ccnc12` [Example I-61, 1-Methyl-3-(6-phenyl-imidazo[1,2-a]pyridin-8-yl)-urea]: the melting point – broadly, the temperature of the solid-liquid transition – is 69 to 70 °C.

As for `Cc1c(NC(=O)c2ccc(C(C)(C)C)cc2)cccc1-c1cc(NC(=O)NC(C)C)c2nccn2n1` [Example I-6, 4-tert-Butyl-N-{3-[8-(3-isopropyl-ureido)-imidazo[1,2-b]pyridazin-6-yl]-2-methyl-phenyl}-benzamide], the melting point lay within 178 to 180 °C.

On to `Cc1c(NC(=O)c2ccc(C(C)(C)C)cc2)cccc1-c1cc(Nc2nccs2)c2nccn2n1` [Example I-12, 4-tert-Butyl-N-{2-methyl-3-[8-(thiazol-2-ylamino)-imidazo[1,2-b]pyridazin-6-yl]-phenyl}-benzamide], for which the melting point lay in the range of 178 to 179 °C.

As to `CNC(=O)Nc1cc(-c2ccccc2)nn2ccnc12` [Example I-13, 1-Methyl-3-(6-phenyl-imidazo[1,2-b]pyridazin-8-yl)-urea], the melting point was in the range of 192 to 193 °C.

The compound `CCOC(=O)c1ccc(Nc2cc(-c3ccccc3)cn3ccnc23)nc1` [Example I-47, 6-(6-Phenyl-imidazo[1,2-a]pyridin-8-ylamino)-nicotinic acid ethyl ester] displayed a melting point of 141.5 to 142.5 °C.

As for `Cc1c(NC(=O)c2ccc(C(C)(C)C)cc2)cccc1-c1cc(NC(N)=O)c2nccn2c1` [Example I-67, 4-tert-Butyl-N-[2-methyl-3-(8-ureido-imidazo[1,2-a]pyridin-6-yl)-phenyl]-benzamide], the melting point lay in the range of 185.4 to 215 °C.

In the case of `CNC(=O)Nc1cc(-c2cccc(NC(=O)c3ccc(OC)cc3)c2C)cn2ccnc12` [Example I-78, 4-Methoxy-N-{2-methyl-3-[8-(3-methyl-ureido)-imidazo[1,2-a]pyridin-6-yl]-phenyl}-benzamide], the melting point fell in the range of 147.6 to 152.9 °C.

In the case of `CNC(=O)Nc1cc(-c2cccc(NC(=O)c3ccc(OC(F)(F)F)cc3)c2C)cn2ccnc12` [Example I-79, N-{2-Methyl-3-[8-(3-methyl-ureido)-imidazo[1,2-a]pyridin-6-yl]-phenyl}-4-trifluoromethoxy-benzamide], the melting point fell in the range of 148.4 to 153.2 °C.

The compound `CNC(=O)Nc1cc(-c2cccc(NC(=O)N3CC(OC(C)(C)C)C3)c2C)cn2ccnc12` [Example I-75, 3-tert-Butoxy-azetidine-1-carboxylic acid {2-methyl-3-[8-(3-methyl-ureido)-imidazo[1,2-a]pyridin-6-yl]-phenyl}-amide] had a melting point of 158 to 161 °C.

Regarding `CNC(=O)Nc1cc(-c2cccc(NC(=O)c3ccc([Si](C)(C)C)cc3)c2C)cn2ccnc12`, the melting point was 143.5 to 154.4 °C.

`Cc1c(NC(=O)c2ccc(C(O)(C(F)(F)F)C(F)(F)F)cc2)cccc1-c1cc(NC(=O)NCCCN(C)C)c2nccn2c1` [Example I-98, N-(3-{8-[3-(3-Dimethylamino-propyl)-ureido]-imidazo[1,2-a]pyridin-6-yl}-2-methyl-phenyl)-4-(2,2,2-trifluoro-1-hydroxy-1-trifluoromethyl-ethyl)-benzamide]: the melting point was 198 to 200 °C.

`Cc1c(NC(=O)c2ccc(C(C)(C)C)cc2)cccc1-c1cc(NC(=O)NC(C)(C)C)c2nccn2n1` [Example I-10, 4-tert-Butyl-N-{3-[8-(3-tert-butyl-ureido)-imidazo[1,2-b]pyridazin-6-yl]-2-methyl-phenyl}-benzamide] had a melting point of 191 to 193 °C.

As to `Cc1c(NC(=O)c2ccc(C(C)(C)C)cc2)cccc1-c1cc(NC(=O)NCCO)c2nccn2c1` [Example I-71, 4-tert-Butyl-N-(3-{8-[3-(2-hydroxy-ethyl)-ureido]-imidazo[1,2-a]pyridin-6-yl}-2-methyl-phenyl)-benzamide], the melting point lay in the range of 176 to 177 °C.

`CC(=O)Nc1cc(-c2cccc(NC(=O)c3ccc(C(C)(C)C)cc3)c2C)cn2ccnc12` [Example I-57, N-[3-(8-Acetylamino-imidazo[1,2-a]pyridin-6-yl)-2-methyl-phenyl]-4-tert-butyl-benzamide] showed a melting point of 132 to 133 °C.

Take `O=C(Cc1cccc(-c2cc(Nc3ccc(C(=O)N4CCOCC4)cn3)c3nccn3c2)c1)N1CC(OC(C(F)(F)F)C(F)(F)F)C1` [Example I-90, 2-(3-{8-[5-(Morpholine-4-carbonyl)-pyridin-2-ylamino]-imidazo[1,2-a]pyridin-6-yl}-phenyl)-1-[3-(2,2,2-trifluoro-1-trifluoromethyl-ethoxy)-azetidin-1-yl]-ethanone]: the melting point was 137 to 138 °C.

`CNC(=O)Nc1cc(-c2cccc(CC(=O)NCC#CC(C)(C)C)c2)cn2ccnc12` [Example I-99, N-(4,4-Dimethyl-pent-2-ynyl)-2-{3-[8-(3-methyl-ureido)-imidazo[1,2-a]pyridin-6-yl]-phenyl}-acetamide] displayed a melting point of 129 to 130 °C.

Compound `CNC(=O)Nc1cc(-c2cccc(CC(=O)N3Cc4ccccc4C3)c2)nn2ccnc12` [Example I-14, 1-(6-{3-[2-(1,3-Dihydro-isoindol-2-yl)-2-oxo-ethyl]-phenyl}-imidazo[1,2-b]pyridazin-8-yl)-3-methyl-urea] displayed a melting point of 244 to 245 °C.

`Cc1c(NC(=O)c2ccc(N(C)C)cc2)cccc1-c1cc(NC(=O)NCCCO)c2nccn2c1` [Example I-69, 4-Dimethylamino-N-(3-{8-[3-(3-hydroxy-propyl)-ureido]-imidazo[1,2-a]pyridin-6-yl}-2-methyl-phenyl)-benzamide] returned a melting point of 144.1 to 188.6 °C.

For `Cc1c(NC(=O)c2ccc(N(C)C)cc2)cccc1-c1cc(NC(=O)NCCO)c2nccn2c1` [Example I-64, 4-Dimethylamino-N-(3-{8-[3-(2-hydroxy-ethyl)-ureido]-imidazo[1,2-a]pyridin-6-yl}-2-methyl-phenyl)-benzamide], the melting point lay within 153.7 to 164.4 °C.

Consider `Cc1c(NC(=O)c2ccc(N(C)C)cc2)cccc1-c1cc(NC(=O)NCCCN2CCOCC2)c2nccn2c1` [Example I-68, 4-Dimethylamino-N-(2-methyl-3-{8-[3-(3-morpholin-4-yl-propyl)-ureido]-imidazo[1,2-a]pyridin-6-yl}-phenyl)-benzamide], for which the melting point lay within 190.2 to 209.7 °C.

Compound `Cc1c(NC(=O)c2ccc(C(C)(C)C)cc2)cccc1-c1cc(NC(=O)NCCCN2CCN(C)CC2)c2nccn2c1` [Example I-94, 4-tert-Butyl-N-[2-methyl-3-(8-{3-[3-(4-methyl-piperazin-1-yl)-propyl]-ureido}-imidazo[1,2-a]pyridin-6-yl)-phenyl]-benzamide] had a melting point of 167 to 168 °C.

On to `Cc1c(NC(=O)N2CC(OC(C)(C)C)C2)cccc1-c1cc(NC(=O)NCCCN(C)C)c2nccn2c1` [Example I-70, 3-tert-Butoxy-azetidine-1-carboxylic acid {3-{8-[3-(3-dimethylamino-propyl)-ureido]-imidazo[1,2-a]pyridin-6-yl}-2-methyl-phenyl)-amide], for which the melting point is 129 to 130 °C.

Regarding `CCC(=O)Nc1cc(-c2cccc(NC(=O)c3ccc(C(C)(C)C)cc3)c2C)cn2ccnc12` [Example I-54, 4-tert-Butyl-N-[2-methyl-3-(8-propionylamino-imidazo[1,2-a]pyridin-6-yl)-phenyl]-benzamide], the melting point is 99 to 100 °C.

Take `CNC(=O)Nc1cc(-c2cccc(NC(=O)c3ccc(OC(C)C)cc3)c2C)cn2ccnc12` [Example I-81, 4-Isopropoxy-N-[2-methyl-3-[8-(3-methyl-ureido)-imidazo[1,2-a]pyridin-6-yl]-phenyl}-benzamide]: the melting point lay within 147.1 to 151.7 °C.

Turning to `Cc1c(NC(=O)c2ccc(N(C)C)cc2)cccc1-c1cc(NC(=O)NCCCN2CCN(C)CC2)c2nccn2c1` [Example I-72, 4-Dimethylamino-N-[2-methyl-3-(8-{3-[3-(4-methyl-piperazin-1-yl)-propyl]-ureido}-imidazo[1,2-a]pyridin-6-yl)-phenyl]-benzamide], the melting point fell in the range of 144 to 145 °C.

`CC(O)(C#CCNC(=O)Cc1cccc(-c2cc(Nc3ccc(C(=O)N4CCOCC4)cn3)c3nccn3c2)c1)C(F)(F)F` (stereo not drawn) [Example I-84, 2-(3-{8-[5-(Morpholine-4-carbonyl)-pyridin-2-ylamino]-imidazo[1,2-a]pyridin-6-yl}-phenyl)-N-(5,5,5-trifluoro-4-hydroxy-4-methyl-pent-2-ynyl)-acetamide] yielded a melting point of 136.8 to 147.5 °C.

On to `C1=C(c2cc(Nc3ccccn3)c3nccn3n2)CCCC1` [Example I-3, (6-Cyclohex-1-enyl-imidazo[1,2-b]pyridazin-8-yl)-pyridin-2-yl-amine], for which the melting point lay within 160.7 to 161.5 °C.
